ChEMBL document CHEMBL1145602, “Synthesis and DNA binding ability of cyclam-amino acid conjugates” (Bioorg Med Chem Lett, 2008)
The source made the active and inactive calls. The rule behind the calls is not given here.

Tested on: DNA
Test: Binding affinity to calf thymus DNA at pH 7 by thermal denaturation assay
Type: nucleic-acid assay
Settings: Bos taurus

| Structure (SMILES) | Activity | ΔTm [°C] |
| --- | --- | --- |
| O=C(CN1CCCNCCNCCCNCC1)N[C@@H](Cc1ccccc1)C(=O)O | Active |  |
| O=C(CN1CCCNCCNCCCNCC1)N[C@@H](COCc1ccccc1)C(=O)O |  | 8 |
| C[C@H](NC(=O)CN1CCCNCCNCCCNCC1)C(=O)O | Active |  |
